Measurements reported in US20100292210A1, “Novel Compounds for A-Beta-Related Pathologies” (AstraZeneca AB, priority 2009, published 2010).
Each block holds one compound with its values, some of them ahead of it.

Test system: Aβ42 release
Test: Aβ42 release from HEK cells stably expressing APPswe, Meso Scale Discovery electrochemiluminescence assay
Format: cell-based
Details: Homo sapiens, HEK293; HEK cell line stably expressing APPswe; 4-6 h incubation with test compound; Aβ42 secreted to cell medium; read-out: pIC50 values of Aβ42 release (converted)
Procedure: The level of activity of the compounds on Aβ formation was tested using the following method:
Compounds were diluted in 100% DMSO and stored at […] prior to use. Human Embryonic Kidney (HEK) cell line stably expressing APP with the Swedish mutation (APPswe) were cultured using Dulbecco's Modified Eagles medium (DMEM) supplied with […] glucose, Na-pyruvate and GlutaMAX with 10% FBS, 100 U/ml penicillin-streptomycin (PEST) respectively, 1×non-essential amino acids (NEAA), […], 100 μg/ml Zeocine. Cells at about 80% confluence were washed with PBS, detached from culture flasks using 1×Trypsin/EDTA diluted in PBS, re-suspended in cell media and plated in 384-well poly-d-lysine coated cell culture plates at about 10000-15000 cells/well, in 25 μL cell media. Optionally, cryo-preserved cells (frozen and stored at −140° C. in 90% cell media and 10% DMSO) were thawed, washed and plated as above. Next the cells were incubated for 15-24 h at 37° C. and 5% CO2, after which cell medium was changed. Fresh medium containing test compound diluted ×200 from prepared compound plate was added to the cells before further incubation for 4-6 hours at 37° C. and 5% CO2. After incubation with test compound the amount of Aβ peptides, including Aβ42, Aβ40, Aβ39, Aβ38 and Aβ37, secreted to cell medium was analyzed using the electrochemiluminescence assay technology from Meso Scale Discovery Technology, in combination with specific antibodies raised against the different Aβ peptides. Potential cytotoxic effects of the compounds were usually assayed by measuring the ATP content (ViaLight) from cell lysate.

IC50: 39.8 nM
Structure (SMILES): COc1cc(Nc2ccc3c(n2)O[C@H](c2ccccc2)CN(CCO)C3)ccc1-n1cnc(C)n1 [Example 41, (R)-2-(8-(3-Methoxy-4-(3-methyl-1H-1,2,4-triazol-1-yl)phenylamino)-2-phenyl-2,3-dihydropyrido[3,2-f][1,4]oxazepin-4(5H)-yl)ethanol]

IC50: 316 nM
Structure (SMILES): COc1cc(Nc2ccc3c(n2)OC(c2cc(C)nn2C)CN(CC#N)C3)ccc1-n1cnc(C)c1 (stereo not drawn) [Example 33, 2-(2-(1,3-Dimethyl-1H-pyrazol-5-yl)-8-(3-methoxy-4-(4-methyl-1H-imidazol-1-yl)phenylamino)-2,3-dihydropyrido[3,2-f][1,4]oxazepin-4(5H)-yl)acetonitrile]

IC50: 501 nM
Structure (SMILES): OCCN1Cc2ccc(Nc3ccc(-n4cncn4)c(Cl)c3)nc2O[C@H](c2ccccc2)C1 [Example 32, (R)-2-(8-(3-Chloro-4-(1H-1,2,4-triazol-1-yl)phenylamino)-2-phenyl-2,3-dihydropyrido[3,2-f][1,4]oxazepin-4(5H)-yl)ethanol]

IC50: 79.4 nM
Structure (SMILES): COc1cc(Nc2cnc3c(n2)O[C@H](c2ccccc2)CN(C)C3)ccc1-n1cnc(C)c1 [Example 39, (R)—N-(3-Methoxy-4-(4-methyl-1H-imidazol-1-yl)phenyl)-8-methyl-6-phenyl-6,7,8,9-tetrahydropyrazino[2,3-f][1,4]oxazepin-3-amine]

IC50: 200 nM
Structure (SMILES): COc1cc(Nc2ccc3c(n2)OC(c2ccccc2)CN(CCO)C3=O)ccc1-n1cnc(C)c1 (stereo not drawn) [Example 20, 4-(2-Hydroxyethyl)-8-(3-methoxy-4-(4-methyl-1H-imidazol-1-yl)phenylamino)-2-phenyl-3,4-dihydropyrido[3,2-f][1,4]oxazepin-5(2H)-one]

The next lines start with the compound.

Structure (SMILES): OCCN1Cc2ccc(Nc3ccc(-c4nnc5n4CCC5)cc3)nc2O[C@H](c2ccccc2)C1 [Example 26, (R)-2-(8-(4-(6,7-Dihydro-5H-pyrrolo[2,1-c][1,2,4]triazol-3-yl)phenylamino)-2-phenyl-2,3-dihydropyrido[3,2-f][1,4]oxazepin-4(5H)-yl)ethanol]
IC50: 20000 nM

Structure (SMILES): COc1cc(Nc2ccc3c(n2)OC(c2ccccc2)CN(C(C)=O)C3)ccc1-n1cnc(C)c1 (stereo not drawn) [Example 17, 1-(8-(3-methoxy-4-(4-methyl-1H-imidazol-1-yl)phenylamino)-2-phenyl-2,3-dihydropyrido[3,2-f][1,4]oxazepin-4(5H)-yl)ethanone]
IC50: 79.4 nM

Structure (SMILES): COc1nc(Nc2ccc3c(n2)O[C@H](c2ccccc2)CNC3)ccc1-c1cnn(C)c1 [Example 56, (R)—N-(6-Methoxy-5-(1-methyl-1H-pyrazol-4-yl)pyridin-2-yl)-2-phenyl-2,3,4,5-tetrahydropyrido[3,2-f][1,4]oxazepin-8-amine]
IC50: 10 nM

Structure (SMILES): COc1nc(Nc2ccc3c(n2)O[C@H](c2ccccc2)CN(C(C)=O)C3)ccc1-n1cnc(C)c1 [Example 11, (R)-1-(8-(6-methoxy-5-(4-methyl-1H-imidazol-1-yl)pyridin-2-ylamino)-2-phenyl-2,3-dihydropyrido[3,2-f][1,4]oxazepin-4(5H)-yl)ethanone]
IC50: 15.8 nM
